The values that follow come from US11358954B2, “PPAR agonists, compounds, pharmaceutical compositions, and methods of use thereof” (Mitobridge, Inc., priority 2016, dated 2022).

One data set has as its target T1, hERG (Homo sapiens, UniProt Q12809).
T1 construct: expressed in transfected cells
Nature of the data set: hERG inhibition screen (patch clamp, peak hERG tail current). Type of data set: cell-based. How it is done:
Cells were cultured in DMEM/F-12 medium supplemented with 10% fetal bovine serum and 400 μg/mL Geneticin. Cells were grown in 75 cm tissue culture flasks maintained at 37° C. with 5% CO2 and passaged every 3 days using 0.05/0.02% Trypsin/EDTA (confluency of <80%). For the purpose of electrophysiology, cells were seeded in 25 cm2 tissue culture flasks. Three day old cells were harvested using Trypsin/EDTA (0.025/0.01%) as detaching agent and resuspended in external recording solution.
Preweighed quantity of test item was dissolved in tissue culture grade DMSO to prepare a primary stock solution. The strength of the primary stock was 1000× of the intended highest test concentration. Subsequently, working stock solutions of appropriate strengths was prepared by dilution of primary stock with DMSO. The stock solutions were aliquoted into eppendorff tubes and stored at −20° C. freezer (<0° C.) until use. On the day of experiment, aliquots were thawed and used for preparing the assay solution (test solution).
Test solutions were prepared fresh by adding 4 μL of stock solution in to 3996 μL external recording solution such that the final DMSO concentration in the assay solution was 0.1% v/v. Upon addition, solution was inspected carefully against light by naked eye for any indications of precipitation.
Electrophysiological Procedures: • Electrophysiology Setup: Instrument: Port-A-Patch • Patch clamp type: Semiautomatic • Manufacturer: Nanion technologies, GmBH Germany • Electrophysiology chips: Glasscoated NPC-1 chips • Recording Condition: Room temperature • Compound Addition Protocol: Manual addition—20 μL of solution was added on one side of the chip, followed by withdrawal of 20 μL from the other side. This way of addition and withdrawal was repeated at least 4-5 times to ensure actual test concentration is reached. • Test Concentration Exposure Period: Cells were exposed to each test concentration for 3 min or till a steady state block was reached • Voltage Protocol: −40 mV subtraction pulse for 0.5 sec; +40 mV activation pre-pulse for 2 sec; −40 mV test pulse for 2 sec and −80 mV holding potential repeated at every 10 sec • Assay end point: Peak hERG tail current recorded when the voltage was reduced from +40 mV to −40 mV.
The steady state current after the application of 0.1% DMSO was considered as baseline (control current). Steady state current obtained at the end of each test concentration addition was used to calculate the % hERG current inhibited at each concentration. Any rundown due to vehicle addition was corrected to calculate % hERG current inhibition. Each cell acted as its own control. Average current of last 3-5 sweeps of acceptable quality was considered for calculation of % inhibition. Sweeps with artifacts and noise were omitted while calculation.

Data set [1] is described as follows: Pharmacokinetic screening in male CD-1 mice. Type of data set: in vivo. The conditions noted are these: mouse; for C0: read-out: IV PK C0; for Vd: read-out: IV PK Vss; for bioavailability: 3.0 mpk po vs 1.0 mpk iv, read-out: Oral PK % F; for Cmax: read-out: Oral PK Cmax; for Tmax: read-out: Oral PK T max. How it is done: (§1) In this example, the PK profile of several PPARδ agonists disclosed herein in male CD-1 mice or Wistar rats was determined by the methods disclosed in Boxenbaum H. (1980) Interspecies variation in liver weight, hepatic blood flow and antipyrine intrinsic clearance in extrapolation of Benzodiazepines and phenytoin. J. Pharmacokinet Biopharm 8: 165-176. Similar methods can be used to analyze other compounds provided herein.
(§2) All compounds were separately administered to CD-1 mice at 1 mg/kg iv or 3 mg/kg po. The compounds were separately administered to male Wistar rats 1 mg/kg iv or 3 mg/kg po. The species M refers to mouse and R reports to rat in the following table. NA means not available.

Data set [2] is described as follows: Pharmacokinetic screening in male Wistar rats. As to conditions: in vivo, rat; for C0: read-out: IV PK C0; for clearance: read-out: IV PK Cl; for Vd: read-out: IV PK Vss; for bioavailability: 3.0 mpk po vs 1.0 mpk iv, read-out: Oral PK % F; for Cmax: read-out: Oral PK Cmax; for Tmax: read-out: Oral PK T max. The method, then: as §1, §2
The mark [3] stands for this setting: male, CD-1, in vivo, 1 mg/kg, 1.0 mpk iv, read-out: IV PK AUC (0-inf).
The mark [4] stands for this setting: male, CD-1, in vivo, 1 mg/kg, 1.0 mpk iv, read-out: IV PK Beta T½ (converted).
Where [5] appears, read: male, CD-1, in vivo, 1 mg/kg, 1.0 mpk iv.
The mark [6] stands for this setting: male, CD-1, in vivo, 3 mg/kg, 3.0 mpk po, read-out: Oral PK AUC (0-inf).
Setting [7] is: male, CD-1, in vivo, 3 mg/kg, 3.0 mpk po.
[8] abbreviates: male, CD-1, in vivo, 3 mg/kg, 3.0 mpk po, read-out: Oral PK T½ (converted).
Where [9] appears, read: 1 mg/kg, 1.0 mpk iv, read-out: IV PK AUC (0-inf).
[10] abbreviates: 1 mg/kg, 1.0 mpk iv, read-out: IV PK Beta T½ (converted).
[11] abbreviates: 3 mg/kg, 3.0 mpk po, read-out: Oral PK AUC (0-inf).

T1 sequence (Q12809 whole entry): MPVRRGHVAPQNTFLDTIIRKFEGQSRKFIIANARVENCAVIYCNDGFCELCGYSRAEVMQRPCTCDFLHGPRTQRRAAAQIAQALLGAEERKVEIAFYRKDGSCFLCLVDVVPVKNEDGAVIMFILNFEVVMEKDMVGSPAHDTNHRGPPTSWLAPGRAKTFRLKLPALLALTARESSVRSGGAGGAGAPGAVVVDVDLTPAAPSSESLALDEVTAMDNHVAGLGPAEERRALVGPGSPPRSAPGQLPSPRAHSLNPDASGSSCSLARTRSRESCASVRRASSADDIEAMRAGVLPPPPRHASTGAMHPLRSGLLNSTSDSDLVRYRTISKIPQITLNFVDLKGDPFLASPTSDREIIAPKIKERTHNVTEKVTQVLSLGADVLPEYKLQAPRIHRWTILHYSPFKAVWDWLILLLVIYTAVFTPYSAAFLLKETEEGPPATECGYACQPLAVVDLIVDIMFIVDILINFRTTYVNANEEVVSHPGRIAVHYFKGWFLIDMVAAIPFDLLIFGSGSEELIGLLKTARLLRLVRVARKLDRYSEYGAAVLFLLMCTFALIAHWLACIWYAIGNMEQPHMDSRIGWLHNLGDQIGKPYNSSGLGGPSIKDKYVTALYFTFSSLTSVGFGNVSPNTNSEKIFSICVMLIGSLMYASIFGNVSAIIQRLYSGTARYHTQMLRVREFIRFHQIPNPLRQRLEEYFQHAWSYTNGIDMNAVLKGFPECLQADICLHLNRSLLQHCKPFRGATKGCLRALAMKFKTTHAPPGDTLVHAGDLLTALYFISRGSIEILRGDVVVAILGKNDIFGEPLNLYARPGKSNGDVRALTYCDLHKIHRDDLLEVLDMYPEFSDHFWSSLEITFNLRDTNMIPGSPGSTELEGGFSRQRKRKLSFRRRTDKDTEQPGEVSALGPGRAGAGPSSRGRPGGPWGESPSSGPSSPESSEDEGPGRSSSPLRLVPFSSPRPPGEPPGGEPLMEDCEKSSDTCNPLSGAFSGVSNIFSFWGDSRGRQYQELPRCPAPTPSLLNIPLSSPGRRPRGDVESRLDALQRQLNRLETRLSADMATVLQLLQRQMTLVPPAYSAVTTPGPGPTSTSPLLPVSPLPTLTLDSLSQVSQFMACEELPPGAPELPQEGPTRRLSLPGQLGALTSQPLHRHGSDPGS

On to `C[C@H](CCCOc1ccccc1Cn1c(C(F)(F)F)cnc1-c1ccc(OC(F)(F)F)cc1)CC(=O)O` [Compound 2g, (3R)-3-methyl-6-(2-((2-(4-(trifluoromethoxy)phenyl)-5-(trifluoromethyl)-1H-imidazol-1-yl)methyl)phenoxy)hexanoic acid], for which the “hERG % Inhibition at 10 μM” value on hERG came out at 2.00%.

For the molecule `C[C@H](CCCOc1ccccc1Cn1c(Cl)cnc1-c1ccc(C(F)(F)F)cc1)CC(=O)O` [Compound 2b, (R)-6-(2-((5-chloro-2-(4-(trifluoromethyl)phenyl)-1H-imidazol-1-yl)methyl)phenoxy)-3-methylhexanoic acid], the AUC(0-inf) in data set [1] (setting [3]) turned out to be 1060 ng·h/mL; in data set [1] (setting [6]), 3880 ng·h/mL; in data set [2] (setting [9]) it was 2970 ng·h/mL; in data set [2] (setting [11]), 7790 ng·h/mL. The half-life was 3.5 h in data set [1] (setting [4]); 4.3 h in data set [1] (setting [8]); 4.8 h in data set [2] (setting [10]); 4.1 h in data set [2] (3 mg/kg, 3.0 mpk po, read-out: Oral PK T½ (converted)). Further, the C0 in data set [1] (setting [5]) amounted to 810 ng/mL; in data set [2] (1 mg/kg, 1.0 mpk iv) it was 2120 ng/mL. Further, the Vd in data set [1] (setting [5]) amounted to 3.1 L/kg; in data set [2] (1 mg/kg, 1.0 mpk iv) it was 1.2 L/kg. Also, the bioavailability in data set [1] (male, CD-1, in vivo, 3 mg/kg) worked out at 100%; in data set [2] (3 mg/kg), 87%. The Cmax in data set [1] (setting [7]) came out at 2950 ng/mL; in data set [2] (3 mg/kg, 3.0 mpk po) it was 2380 ng/mL. The Tmax in data set [1] (setting [7]) turned out to be 0.5 h; in data set [2] (3 mg/kg, 3.0 mpk po), 0.3 h. Besides, in data set [1] (1.0 mpk iv), the “IV PK Cl” value amounted to 16 mL/min/kg. The “hERG % Inhibition at 10 μM” value at hERG was found to be 3.00%. In data set [2] (1 mg/kg, 1.0 mpk iv), the clearance was determined as 5.8 mL/min/kg.

In the case of `C[C@H](CCCOc1ccccc1Cn1c(C#N)cnc1-c1ccc(C(F)(F)F)cc1)CC(=O)O` [Compound 2c, (3R)-6-(2-((5-cyano-2-(4-(trifluoromethyl)phenyl)-1H-imidazol-1-yl)methyl)phenoxy)-3-methylhexanoic acid], the “hERG % Inhibition at 10 μM” value on hERG was 2.50%.

In the case of `C[C@H](CCCOc1ccccc1Cn1c(C(F)(F)F)cnc1-c1ccc(-c2ccco2)cc1)CC(=O)O` [Compound 2i, (3R)-6-(2-((2-(4-(furan-2-yl)phenyl)-5-(trifluoromethyl)-1H-imidazol-1-yl)methyl)phenoxy)-3-methylhexanoic acid], at hERG, the “hERG % Inhibition at 10 μM” value worked out at 2.30%.

As to `C[C@H](CCCOc1ccccc1Cn1c(C(F)(F)F)cnc1-c1ccc(C(F)(F)F)cc1)CC(=O)O` [Compound 2a, (3R)-3-methyl-6-(2-((5-(trifluoromethyl)-2-(4-(trifluoromethyl)phenyl)-1H-imidazol-1-yl)methyl)phenoxy)hexanoic acid], the AUC(0-inf) in data set [1] (setting [3]) amounted to 3310 ng·h/mL; in data set [1] (setting [6]), 6960 ng·h/mL; in data set [2] (setting [9]), 5040 ng·h/mL; in data set [2] (setting [11]), 16100 ng·h/mL. For the same molecule, the C0 turned out to be 740 ng/mL in data set [1] (setting [5]) and 1530 ng/mL in data set [2] (1 mg/kg, 1.0 mpk iv). Also, the Vd in data set [1] (setting [5]) stood at 1.9 L/kg; in data set [2] (1 mg/kg, 1.0 mpk iv), 1.7 L/kg. The bioavailability is 70% in data set [1] (male, CD-1, in vivo, 3 mg/kg) and 100% in data set [2] (3 mg/kg). For the same molecule, the Cmax was determined as 1260 ng/mL in data set [1] (setting [7]) and 1200 ng/mL in data set [2] (3 mg/kg, 3.0 mpk po). Also, the Tmax in data set [1] (setting [7]) was 0.3 h; in data set [2] (3 mg/kg, 3.0 mpk po), 2.8 h. The half-life in data set [1] (setting [8]) is 3.8 h; in data set [2] (setting [10]), 7.1 h. Moreover, in data set [1] (1.0 mpk iv), the “IV PK Beta T½” value stood at 5.8 h. In addition, the “IV PK Cl” value in data set [1] (1.0 mpk iv) was determined as 5.0 mL/min/kg. This molecule also came in with an inhibition at 10 µM against hERG (human) of 6%. In addition, the clearance in data set [2] (1 mg/kg, 1.0 mpk iv) worked out at 3.8 mL/min/kg.

For the molecule `C[C@H](CCCOc1ccccc1Cn1c(C(F)(F)F)cnc1-c1ccc(Cl)cc1)CC(=O)O` [Compound 2d, (3R)-6-(2-((2-(4-chlorophenyl)-5-(trifluoromethyl)-1H-imidazol-1-yl)methyl)phenoxy)-3-methylhexanoic acid], the AUC(0-inf) in data set [1] (setting [3]) was 5620 ng·h/mL. Besides, the half-life in data set [1] (setting [4]) was 6.3 h. Further, in data set [1] (setting [5]), the C0 is 1720 ng/mL and the Vd was determined as 1.4 L/kg. In data set [1] (male, CD-1, in vivo, 1 mg/kg, 1.0 mpk iv, read-out: IV PK Cl), the clearance is 5.4 mL/min/kg. Further, the bioavailability in data set [1] (male, CD-1, in vivo, 3 mg/kg) was 61%. In data set [1] (setting [6]), the AUC(0-inf) turned out to be 5620 ng·h/mL. Moreover, in data set [1] (setting [7]), the Cmax came out at 2830 ng/mL and the Tmax was 0.3 h. Besides, the half-life in data set [1] (setting [8]) was 10 h. Besides, the “hERG % Inhibition at 10 μM” value at hERG amounted to 5.00%.
